From US20070259329A1, “Anergy-inducing cellular composition” (BioVerde. Inc., priority 2006, published 2007)
Marks after values point to notes of the source that are not given here.

What was measured:
Assay type in all cases: cell-based, murine (C57BI/6 splenocytes)
CD2 = target: T1, CD2 (Mus musculus, UniProt P08920); test: Lymphocyte marker analysis by flow cytometry, CD2 epitope; details: for percent expression of cell surface molecule CD2: epitope-specific antibody, average of triplicate; for average percent suppression in epitope detection, CD2: relative to untreated control (0 ppm)
T1 construct: endogenous in cells; host or cells: murine splenocytes (C57Bl/6)
T1 sequence (P08920 23-344): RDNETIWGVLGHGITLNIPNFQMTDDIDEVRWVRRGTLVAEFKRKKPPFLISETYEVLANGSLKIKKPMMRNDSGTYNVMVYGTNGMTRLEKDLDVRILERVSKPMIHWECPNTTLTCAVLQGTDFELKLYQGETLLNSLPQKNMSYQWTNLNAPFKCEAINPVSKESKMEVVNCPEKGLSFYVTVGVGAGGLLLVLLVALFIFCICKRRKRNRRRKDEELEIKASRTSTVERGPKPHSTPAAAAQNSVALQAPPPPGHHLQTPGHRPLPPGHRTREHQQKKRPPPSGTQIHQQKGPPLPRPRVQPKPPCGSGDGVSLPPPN
Procedure: (§1) To evaluate the action of EGCG in rendering cells to become anergy-inducing, murine splenocytes were used as a model system. Splenocytes were collected from BALB/c (H2 K^b) and C57BI/6 (H2 K^d) female mice of 8 to 13 weeks of age in HBSS (BioWhittaker) with 1% FCS. Cells were washed with HBSS (1% FCS) and treated with the media solution which contains RPMI 1640 (Sigma-Aldrich), 10 mM HEPES (Dojindo), and various concentrations of EGCG (98% purity, Roche) described in the examples.
(§2) Flow cytometric analyses of surface epitopes for the control and EGCG-treated splenocytes were performed using a series of fluorescence-labeled monoclonal anti-mouse CD and MHC and corresponding isotype control antibodies (eBioscience: CD2, CD36, CD4, CD11a, CD25, CD 28, CD 49d and CD80; Pharmingen: TCRαβ and MHC II). Murine splenocytes (C57BI/6) were treated with red blood cell lysis buffer (eBioscience) for 5 min prior to EGCG treatments. Immediately following EGCG-treatments, the splenocytes were washed with RPMI 1640 (10% FCS) and a staining buffer (eBioscience) at 4 degree C. Each splenocyte sample was reconstituted as a 50 μl aliquot in the same staining buffer and subject to antibody labeling. After washing twice the samples with the staining buffer, a minimum of 10,000 events per sample was collected on a Becton Dickinson FACScan flow cytometer.

CD28 = target: T2, CD28 (Mus musculus, UniProt P31041); test: Lymphocyte marker analysis by flow cytometry, CD28 epitope; details: for percent expression of cell surface molecule CD28: epitope-specific antibody, average of triplicate; for average percent suppression in epitope detection, CD28: relative to untreated control (0 ppm)
T2 construct: endogenous in cells; host or cells: murine splenocytes (C57Bl/6)
T2 sequence (P31041 20-218): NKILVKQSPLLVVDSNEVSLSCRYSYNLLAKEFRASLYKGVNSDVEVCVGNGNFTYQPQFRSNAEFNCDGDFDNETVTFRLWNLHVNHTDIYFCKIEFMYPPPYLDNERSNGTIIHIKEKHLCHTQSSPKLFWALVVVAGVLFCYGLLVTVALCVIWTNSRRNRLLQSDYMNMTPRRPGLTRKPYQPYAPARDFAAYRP
Procedure: as §1, §2

TCRαβ = test: Lymphocyte marker analysis by flow cytometry, TCRαβ epitope; details: for percent expression of cell surface molecule TCRαβ: epitope-specific antibody, average of triplicate; for average percent suppression in epitope detection, TCRαβ: relative to untreated control (0 ppm)
Procedure: as §1, §2

[1] = EGCG treatment, summary of TABLE 1

- percent expression of cell surface molecule CD2 (CD2; EGCg 100 ppm): 85.9%
- average percent suppression in epitope detection, CD2 (CD2; EGCg 100 ppm): (9.5)** percent
- percent expression of cell surface molecule CD2 (CD2; EGCg 200 ppm): 90.8%
- average percent suppression in epitope detection, CD2 (CD2; EGCg 200 ppm): (4.3)** percent
- binding of the CD28-specific monoclonal antibody, of the control (CD28; [1]): about 50%
- percent expression of cell surface molecule CD28 (CD28; EGCg 100 ppm): 8.7%
- average percent suppression in epitope detection, CD28 (CD28; EGCg 100 ppm): (50.6)** percent
- percent expression of cell surface molecule CD28 (CD28; EGCg 200 ppm): 9.4%
- average percent suppression in epitope detection, CD28 (CD28; EGCg 200 ppm): (46.6)** percent
- binding of TCRαβ with its monoclonal antibody (TCRαβ; [1]): hardly to moderately decreased
Substance: (−)-epigallocatechin-3-o-gallate [EGCG]
- percent expression of cell surface molecule TCRαβ (TCRαβ; EGCg 100 ppm): 29.9%
- average percent suppression in epitope detection, TCRαβ (TCRαβ; EGCg 100 ppm): (3.5)^n.s. percent
- percent expression of cell surface molecule TCRαβ (TCRαβ; EGCg 200 ppm): 29.7%
- average percent suppression in epitope detection, TCRαβ (TCRαβ; EGCg 200 ppm): (4.2)^n.s. percent
